This assay concerns the target T1, sGC α1/β1 heterodimer (Homo sapiens, UniProt Q02108+Q02153).
T1 construct: expressed in transfected cells; host or cells: CHO-K1 (clone #7, CHO-K1/sGC)
T1 sequence (Q02108 1-690): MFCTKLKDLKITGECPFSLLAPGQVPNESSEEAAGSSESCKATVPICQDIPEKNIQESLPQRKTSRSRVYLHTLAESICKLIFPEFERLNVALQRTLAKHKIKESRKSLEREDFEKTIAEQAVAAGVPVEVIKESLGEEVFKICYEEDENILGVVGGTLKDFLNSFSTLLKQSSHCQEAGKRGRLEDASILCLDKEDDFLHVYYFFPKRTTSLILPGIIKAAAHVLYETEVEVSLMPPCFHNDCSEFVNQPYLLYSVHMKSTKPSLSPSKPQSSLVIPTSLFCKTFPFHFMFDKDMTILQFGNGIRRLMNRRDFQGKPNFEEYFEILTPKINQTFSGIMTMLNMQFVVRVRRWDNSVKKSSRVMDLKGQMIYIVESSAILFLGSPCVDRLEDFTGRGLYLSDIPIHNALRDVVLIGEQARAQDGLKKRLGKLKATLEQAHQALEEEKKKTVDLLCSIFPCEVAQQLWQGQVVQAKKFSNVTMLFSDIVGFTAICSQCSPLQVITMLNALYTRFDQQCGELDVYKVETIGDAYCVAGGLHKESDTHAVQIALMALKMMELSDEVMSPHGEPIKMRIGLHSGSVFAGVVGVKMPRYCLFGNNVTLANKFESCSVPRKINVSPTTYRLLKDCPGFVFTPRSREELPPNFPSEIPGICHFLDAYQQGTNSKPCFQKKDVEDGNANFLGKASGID
T1 sequence (Q02153 1-619): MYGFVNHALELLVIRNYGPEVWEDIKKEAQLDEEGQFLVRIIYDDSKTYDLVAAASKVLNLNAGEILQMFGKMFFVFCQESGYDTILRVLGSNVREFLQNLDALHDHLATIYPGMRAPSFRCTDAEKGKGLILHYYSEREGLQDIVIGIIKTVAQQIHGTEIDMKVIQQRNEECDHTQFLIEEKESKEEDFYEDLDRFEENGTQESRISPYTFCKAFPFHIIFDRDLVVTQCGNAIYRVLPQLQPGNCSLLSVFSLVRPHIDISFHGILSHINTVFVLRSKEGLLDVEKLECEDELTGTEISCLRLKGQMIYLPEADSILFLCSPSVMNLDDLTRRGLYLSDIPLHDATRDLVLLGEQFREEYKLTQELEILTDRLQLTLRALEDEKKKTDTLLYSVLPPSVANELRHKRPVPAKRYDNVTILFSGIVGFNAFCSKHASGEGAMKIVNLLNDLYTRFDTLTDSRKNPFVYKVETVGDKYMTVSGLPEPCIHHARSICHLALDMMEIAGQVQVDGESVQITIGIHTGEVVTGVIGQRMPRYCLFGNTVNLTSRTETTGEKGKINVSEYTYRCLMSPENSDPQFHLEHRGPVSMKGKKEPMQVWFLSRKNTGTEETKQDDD
Briefly: Cell-based sGC functional assay (CASA assay): cGMP generation in CHO-K1/sGC cells, HTRF detection. The following applies: for Emax: CHO-K1, percent activation relative to standard Compound A in CHO-K1/sGC cells, read-out: % Act.; for EC50: inflection point (IP) of cGMP generation in CHO-K1/sGC cells, 4P fit, activity expressed as percentage of Compound A. In a few lines: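 cGMP was quantified by HTRF after 1 hr, 37° C exposure of thawed CHO-K1 cells expressing sGC α1/β1 to compound, with or without 1 μM DETA-NO. IBMX (0.5 mM) blocked cGMP breakdown, and DMSO was 2.5% final. Percent of standard Compound A's maximal cGMP was fitted (4P) for inflection point.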
(In general: TR-FRET usually uses a lanthanide donor and a delayed reading to cut background.)

For `CCCc1nc(-c2nc(N)c3c(n2)NC(=O)C3(C)c2ccc(OC(F)(F)F)cc2)cn2ccnc12` (stereo not shown) [Example 24A, 4-amino-5-methyl-2-(8-propylimidazo[1,2-a]pyrazin-6-yl)-5-(4-(trifluoromethoxy)phenyl)-5H-pyrrolo[2,3-d]pyrimidin-6(7H)-one], the Emax was 104% and the EC50 (commonly the concentration that produces a half-maximal response) was determined as 0.41 µM.

As for `COc1ccc(C2(C3CC3)C(=O)Nc3nc(-c4cn5ccnc5c(CCC(F)(F)C(F)(F)F)n4)nc(N)c32)nc1` (single isomer, unassigned) [Example 337A, 4-amino-5-cyclopropyl-5-(5-methoxypyridin-2-yl)-2-(8-(3,3,4,4,4-pentafluorobutyl)imidazo[1,2-a]pyrazin-6-yl)-5H-pyrrolo[2,3-d]pyrimidin-6(7H)-one], the Emax worked out at 189% and the EC50 turned out to be 0.486 µM.

As for `CC1(c2ccc(Cl)cc2)C(=O)Nc2nc(-c3cn4ccnc4cn3)nc(N3CC(C(F)(F)F)C3)c21` (stereo not shown) [Example 282A, 5-(4-chlorophenyl)-2-(imidazo[1,2-a]pyrazin-6-yl)-5-methyl-4-(3-(trifluromethyl)azetidin-1-yl)-5H-pyrrolo[2,3-d]pyrimidin-6(7H)-one], the Emax came out at 153% and the concentration for a half-maximal effect (EC50) was determined as 0.197 µM.

As for `CCC1(C)C(=O)Nc2nc(-c3cn4ccnc4c(Cc4ccccc4)n3)nc(N)c21` (single isomer, unassigned) [Example 84B, 4-amino-2-(8-benzylimidazo[1,2-a]pyrazin-6-yl)-5-ethyl-5-methyl-5H-pyrrolo[2,3-d]pyrimidin-6(7H)-one], the Emax was found to be 100% and it took 0.18 µM to reach a half-maximal effect (EC50).

In the case of `CCC1(c2ccc(F)cc2)C(=O)Nc2nc(-c3cn4c(F)cnc4c(CCC(F)(F)C(F)(F)F)n3)nc(N)c21` (stereo not shown) [Example 276A, 4-Amino-5-ethyl-2-(3-fluoro-8-(3,3,4,4,4-pentafluorobutyl)imidazo[1,2-a]pyrazin-6-yl)-5-(4-fluorophenyl)-5H-pyrrolo[2,3-d]pyrimidin-6(7H)-one], the Emax amounted to 80% and the EC50 turned out to be 0.022 µM.

Regarding `Cc1nnc(C2(C)C(=O)Nc3nc(-c4cn5ccnc5c(CCC(F)(F)C(F)(F)F)n4)nc(N)c32)s1` (stereo not shown) [Example 58A, 4-amino-5-methyl-5-(5-methyl-1,3,4-thiadiazol-2-yl)-2-(8-(3,3,4,4,4-pentafluorobutyl)imidazo[1,2-a]pyrazin-6-yl)-5H-pyrrolo[2,3-d]pyrimidin-6(7H)-one], the Emax was 93% and a half-maximal response (EC50) required 0.636 µM.

With `CCOC(=O)CCNc1nc(-c2cn3ccnc3c(CCC(F)(F)F)n2)nc2c1C(C)(c1ccc(Cl)cc1)C(=O)N2` (stereo not shown) [Example 298A, ethyl 3-((5-(4-chlorophenyl)-5-methyl-6-oxo-2-(8-(3,3,3-trifluoropropyl)imidazo[1,2-a]pyrazin-6-yl)-6,7-dihydro-5H-pyrrolo[2,3-d]pyrimidin-4-yl)amino)propanoate], the Emax was found to be 114% and the 50% effective concentration (EC50) is 0.121 µM.

In the case of `CCCCc1nc(-c2nc(N)c3c(n2)NC(=O)C3(C)c2ccc(F)cn2)cn2c(C)cnc12` (stereo not shown) [Example 165B, 4-amino-2-(8-butyl-3-methylimidazo[1,2-a]pyrazin-6-yl)-5-(5-fluoropyridin-2-yl)-5-methyl-5H-pyrrolo[2,3-d]pyrimidin-6(7H)-one], the Emax is 81% and the 50% effective concentration (EC50) is 0.043 µM.

Take `CCc1cn2cc(-c3nc(N)c4c(n3)NC(=O)C4(C)c3ccccc3)nc(CCC(F)(F)C(F)(F)F)c2n1` (stereo not shown) [Example 160B, 4-amino-2-(2-ethyl-8-(3,3,4,4,4-pentafluorobutyl)imidazo [1,2-a]pyrazin-6-yl)-5-methyl-5-phenyl-5H-pyrrolo[2,3-d]pyrimidin-6(7H)-one]: the Emax came to 102% and the EC50 stood at 0.978 µM.

Take `CCCCc1nc(-c2nc(N)c3c(n2)NC(=O)C3(c2ccc(F)cc2)C2CCC2)cn2ccnc12` (single isomer, unassigned) [Example 361B, 4-amino-2-(8-butylimidazo[1,2-a]pyrazin-6-yl)5-cyclobutyl-5-(4-fluorophenyl)-5H-pyrrolo[2,3-d]pyrimidin-6(7H)-one]: the Emax was 157% and a half-maximal response (EC50) required 0.047 µM.

With `CC1(c2ccc(Cl)cc2)C(=O)Nc2nc(-c3cn4ccnc4c(Cc4ccc(F)cc4)n3)nc(N)c21` (stereo not shown) [Example 99A, 4-amino-5-(4-chlorophenyl)-2-(8-(4-fluorobenzyl)imidazo[1,2-a]pyrazin-6-yl)-5-methyl-5H-pyrrolo[2,3-d]pyrimidin-6(7H)-one], the Emax worked out at 119% and it took 0.011 µM to reach a half-maximal effect (EC50).

Turning to `CC1(C(=O)NC2CC2)C(=O)Nc2nc(-c3cn4cc(C(F)(F)F)nc4c(Cc4ccc(F)c(F)c4)n3)nc(N)c21` (stereo not shown) [Example 52A, 4-amino-N-cyclopropyl-2-(8-(3,4-difluorobenzyl)-2-(trifluoromethyl)imidazo[1,2-a]pyrazin-6-yl)-5-methyl-6-oxo-6,7-dihydro-5H-pyrrolo[2,3-d]pyrimidine-5-carboxamide], the Emax amounted to 93% and the EC50 is 0.95 µM.

Turning to `Nc1nc(-c2cn3ccnc3c(Cc3cccc(F)c3)n2)nc2c1C(C(=O)NC1CC1)(C1CC1)C(=O)N2` (single isomer, unassigned) [Example 38A, 4-amino-N,5-dicyclopropyl-2-(8-(3-fluorobenzyl)imidazo[1,2-a]pyrazin-6-yl)-6-oxo-6,7-dihydro-5H-pyrrolo[2,3-d]pyrimidine-5-carboxamide], the half-maximal effective concentration (EC50) is 0.061 µM. In addition, the “% Act.” value (percent activation relative to standard Compound A in CHO-K1/sGC cells) is 124%.

As for `Nc1nc(-c2cn3ccnc3c(CCC(F)(F)F)n2)nc2c1C(c1ncc(Cl)cn1)(C1CC1)C(=O)N2` (stereo not shown) [Example 374A, 4-amino-5-(5-chloropyrimidin-2-yl)-5-cyclopropyl-2-(8-(3,3,3-trifluoropropyl)imidazo[1,2-a]pyrazin-6-yl)-5H-pyrrolo[2,3-d]pyrimidin-6(7H)-one], the Emax came to 126% and the midpoint of the response, the EC50, lay at 0.387 µM.

As to `CC(C)n1cc(C2(C)C(=O)Nc3nc(-c4cn5ccnc5c(CCC(F)(F)C(F)(F)F)n4)nc(N)c32)nn1` (stereo not shown) [Example 67A, 4-amino-5-(1-isopropyl-1H-1,2,3-triazol-4-yl)-5-methyl-2-(8-(3,3,4,4,4-pentafluorobutyl)imidazo[1,2-a]pyrazin-6-yl)-5H-pyrrolo[2,3-d]pyrimidin-6(7H)-one], the Emax came to 120% and the EC50 is 0.746 µM.

`CC1(c2ccc(Cl)cc2)C(=O)Nc2nc(-c3cn4cc(C(F)(F)F)nc4c(Cc4cccc(F)c4)n3)nc(N)c21` (stereo not shown) [Example 150A, 4-amino-5-(4-chlorophenyl)-2-(8-(3-fluorobenzyl)-2-(trifluoromethyl)imidazo[1,2-a]pyrazin-6-yl)-5-methyl-5H-pyrrolo[2,3-d]pyrimidin-6(7H)-one]: the Emax stood at 122% and a half-maximal response (EC50) required 0.029 µM.

Regarding `CC1(c2ccc(OC(F)F)cn2)C(=O)Nc2nc(-c3cn4ccnc4c(CC4CCC4)n3)nc(N)c21` (stereo not shown) [Example 117A, 4-amino-2-(8-(cyclobutylmethyl)imidazo [1,2-a]pyrazin-6-yl)-5-(5-(difluoromethoxy)pyridin-2-yl)-5-methyl-5H-pyrrolo[2,3-d]pyrimidin-6(7H)-one], the Emax amounted to 103% and the EC50 is 0.033 µM.

Values taken from patent US9796733B2, “Imidazo-pyrazine derivatives useful as soluble guanylate cyclase activators” (Merck Sharp & Dohme Corp., priority 2014, dated 2017).
